Assay results as given in patent publication US4145444A, “Anti-inflammatory agent of benzoyl derivative” (priority 1977, dated 1979).
Read-outs that look alike come from different tables or passages of the source.

Columns and labels:
platelet = assay: Blood platelet aggregation inhibiting effect (collagen-induced); format: cell-based, rabbits; settings: Oryctolagus cuniculus, Platelet; 10^-4 mole, collagen inducer, rabbit PRP; read-out: Blood platelet agg. inh.: percentage inhibition of platelet aggregation
From the text: Male rabbits (Japan original white strain 3.3 to 3.6 kg) were anesthetized with Thiopental sodium and blood was sampled from the carotid artery.

male mice = assay: Analgesic effect: painful stretchings following intraperitoneal 0.7% acetic acid; settings: Mus musculus, po, read-out: Analgesic: percentage diminition of times of painful stretching
Procedure: Each sample was orally administered in the dosage of 100 mg/kg before injection of acetic acid.

hind paws of male rats = assay: Anti-inflammatory effect: acute carragheenin edema method; format: in vivo; settings: Rattus norvegicus, read-out: Anti-inf.: edema inhibition rate
Procedure: The edema was induced by subcutaneous injection of 1% carragheenin suspension in saline to the hind paws of male rats weighting 150 to 180 g. Each sample was orally given at the dosage of 100 mg/kg just before the inoculation of carragheenin.

thrombus = assay: Inhibiting effect on thrombosis (by-pass between left juglar vein and right carotid artery, silk thread); format: in vivo, SD type male rates; settings: Rattus norvegicus; 100 mg/kg oral, 5 hours before first blood circulation, rats; read-out: Thrombosis inh.: thrombosis inhibition rate
Procedure: The inhibiting effects of the samples of the invention on thrombosis were tested by the following test method.
A 0.5 ml of 50 μ/ml of the heparin physiological saline was added through the polyethylene tube before the first blood circulation. After the blood circulation for 15 minutes, the circulation was stopped in the middle of the tubing at artery side with a pinch cock.
Then, 0.2 ml of the heparin physiological saline was added to remove the blood coagulates on the tubing wall and another new polyethylene tubing filled with the heparin solution and containing a piece of new silk thread was attached between the venous and artery tubing ends.
The blood circulation was reestablished by opening the pinch cock. After 15 minutes, the wet weight of thrombus on the silk thread was similarly measured.
In the same manner, the third circulation was performed and wet weight of thrombus measured.
The amount of thrombus was given by the equation A. [formula] Each sample was suspended in an aqueous solution of sodium carboxymethyl cellulose and the oral dose of the suspension (100 mg/kg) was performed at 5 hours before the first blood circulation.
The amount of thrombus after the oral dose of the sample was calculated in the same manner as that of control circulations.
The thrombosis inhibition rate was given by the equation B. [formula]

[1] = 100 mg/kg oral, carragheenin edema, male rats (Table 2)

Structure (SMILES) | inhibition at 100 µM (platelet) | inhibition in vivo at 100 mg/kg (male mice) | inhibition in vivo at 100 mg/kg (hind paws of male rats; [1]) | inhibition in vivo at 100 mg/kg (thrombus) | inhibition in vivo at 100 mg/kg (hind paws of male rats; po)
Cc1ccc(C(=O)c2ccccc2F)c(C)c1 [compound 10] | 18.5% | 20.3% | 47.5% | 29.7% | –
CCCCc1ccc(C(=O)Cc2ccccc2)cc1 [compound 39] | 2.6% | 23.1% | 35.9% | 15.9% | –
CCCCCCCCCCCCc1ccc(C(=O)Cc2ccccc2)cc1 [compound 52] | 6.8% | 12.5% | 25.5% | 10.1% | –
CCc1cc(CC)c(C(=O)c2ccccc2)c(CC)c1 [compound 13] | 14.3% | 15.8% | 38.9% | 20.5% | –
Cc1ccc(C(=O)Cc2ccccc2)cc1 [compound 48] | 20.5% | 12.5% | 26% | 18.3% | –
CCCCCCOc1ccc(C(=O)Cc2ccc(Cl)cc2)cc1 [compound 62] | 12.3% | 10.2% | 12.5% | 7.8% | –
CCCCc1ccc(C(=O)c2ccccc2)cc1 [compound 19] | 18.6% | 30.1% | 63.4% | 7.9% | –
CCCCCc1ccc(C(=O)c2ccc(CCC)cc2)cc1 [compound 99] | 29.5% | 15.5% | 34.1% | 30.3% | –
CCCc1ccc(C(=O)c2ccc(O)cc2)cc1 [compound 104] | 25.3% | 13.2% | 27.4% | 30.5% | –
CCCCCCCCc1ccc(C(=O)c2ccccc2)cc1 [compound 26] | 3.1% | 35.9% | 47.2% | 24.8% | –
CCCc1ccc(CCC)c(C(=O)c2ccccc2)c1 [compound 16] | 8.6% | 12.4% | 45.2% | 21.5% | –
O=C(c1ccccc1)c1ccccc1F [compound 15] | 23.2% | 18.5% | 61.4% | 26.5% | –
CCCc1ccc(C(=O)c2cccc(C)c2)cc1 [compound 87] | 30.1% | 11.2% | 18.7% | 25.8% | –
CCCCCCCCCc1ccc(C(=O)c2ccc(CCCC)cc2)cc1 [compound 102] | 30.4% | 15.2% | 22.4% | 29.7% | –
O=C(c1ccc(F)cc1)c1ccc(F)cc1 [compound 114] | 26.8% | 18.3% | 33.2% | 31.1% | –
Cc1cc(C)c(C)c(C(=O)c2ccccc2)c1C [compound 78] | 19.9% | 5.4% | 12.5% | 20.2% | –
CCCc1ccc(C(=O)c2ccccc2C)cc1 [compound 90] | 10.8% | 13.7% | 19.7% | 15% | –
Cc1ccc(C(=O)c2ccccc2)c(C)c1 [compound 37] | 17.4% | 9.8% | 39.6% | 5.3% | –
CCOc1ccc(C(=O)c2ccccc2)cc1 [compound 81] | 18.3% | 17.6% | 15.3% | 20.3% | –
CCCCCCCc1ccc(C(=O)c2ccc(C)cc2)cc1 [compound 85] | 18.7% | 10.2% | – | 16.2% | 18.7%
CCCCCc1ccc(C(=O)c2ccccc2C)cc1 [compound 41] | 14.4% | 14.6% | 47.4% | 28.5% | –
